In US10428063B2 (Bayer Pharma Aktiengesellschaft, priority 2015, dated 2019):
pIC50: −log10 of the molar value.

Biological target: catalytic domain of human Bub1 (amino acids 704-1085) (Homo sapiens (Human), UniProt O43683)
Assay: Bub1 kinase assay (TR-FRET)
Format: biochemical
Conditions: 10 μM ATP, 1 μM peptide substrate, recombinant catalytic domain of human Bub1, read-out: Bub1 kinase assay median IC50
Source text: Bub1-inhibitory activities of compounds described in the present invention were quantified using a time-resolved fluorescence energy transfer (TR-FRET) kinase assay which measures phosphorylation of the synthetic peptide Biotin-Ahx-VLLPKKSFAEPG (C-terminus in amide form), purchased from e.g. Biosyntan (Berlin, Germany) by the (recombinant) catalytic domain of human Bub1 (amino acids 704-1085), expressed in Hi5 insect cells with an N-terminal His6-tag and purified by affinity- (Ni-NTA) and size exclusion chromatography.
In a typical assay 11 different concentrations of each compound (0.1 nM, 0.33 nM, 1.1 nM, 3.8 nM, 13 nM, 44 nM, 0.15 μM, 0.51 μM, 1.7 μM, 5.9 μM and 20 μM) were tested in duplicate within the same microtiter plate. To this end, 100-fold concentrated compound solutions (in DMSO) were previously prepared by serial dilution (1:3.4) of 2 mM stocks in a clear low volume 384-well source microtiter plate (Greiner Bio-One, Frickenhausen, Germany), from which 50 nl of compounds were transferred into a black low volume test microtiter plate from the same supplier. Subsequently, 2 μl of Bub1 (the final concentration of Bub1 was adjusted depending on the activity of the enzyme lot in order to be within the linear dynamic range of the assay: typically ˜200 ng/ml were used) in aqueous assay buffer [50 mM Tris/HCl pH 7.5, 10 mM magnesium chloride (MgCl2), 200 mM potassium chloride (KCl), 1.0 mM dithiothreitol (DTT), 0.1 mM sodium ortho-vanadate, 1% (v/v) glycerol, 0.01% (w/v) bovine serum albumine (BSA), 0.005% (v/v) Trition X-100 (Sigma), 1× Complete EDTA-free protease inhibitor mixture (Roche)] were added to the compounds in the test plate and the mixture was incubated for 15 min at 22° C. to allow pre-equilibration of the putative enzyme-inhibitor complexes before the start of the kinase reaction, which was initiated by the addition of 3 μl 1.67-fold concentrated solution (in assay buffer) of adenosine-tri-phosphate (ATP, 10 μM final concentration) and peptide substrate (1 μM final concentration). The resulting mixture (5 μl final volume) was incubated at 22° C. during 60 min., and the reaction was stopped by the addition of 5 μl of an aqueous EDTA-solution (50 mM EDTA, in 100 mM HEPES pH 7.5 and 0.2% (w/v) bovine serum albumin) which also contained the TR-FRET detection reagents (0.2 μM streptavidin-XL665 [Cisbio Bioassays, Codolet, France] and 1 nM anti-phosho-Serine antibody [Merck Millipore, cat. #35-002] and 0.4 nM LANCE EU-W1024 labeled anti-mouse IgG antibody [Perkin-Elmer, product no. AD0077, alternatively a Terbium-cryptate-labeled anti-mouse IgG antibody from Cisbio Bioassays can be used]). The stopped reaction mixture was further incubated 1 h at 22° C. in order to allow the formation of complexes between peptides and detection reagents. Subsequently, the amount of product was evaluated by measurement of the resonance energy transfer from the Eu-chelate-antibody complex recognizing the Phosphoserine residue to the streptavidin-XL665 bound to the biotin moiety of the peptide. To this end, the fluorescence emissions at 620 nm and 665 nm after excitation at 330-350 nm were measured in a TR-FRET plate reader, e.g. a Rubystar or Pherastar (both from BMG Labtechnologies, Offenburg, Germany) or a Viewlux (Perkin-Elmer) and the ratio of the emissions (665 nm/622 nm) was taken as indicator for the amount of phosphorylated substrate. The data were normalised using two sets of control wells for high- (=enzyme reaction without inhibitor=0%=Minimum inhibition) and low- (=all assay components without enzyme=100%=Maximum inhibition) Bub1 activity. IC50 values were calculated by fitting the normalized inhibition data to a 4-parameter logistic equation (Minimum, Maximum, IC50, Hill; Y=Max+(Min−Max)/(1+(X/IC50)Hill)).

catalytic domain of human Bub1 (amino acids 704-1085), sequence (O43683 704-1085): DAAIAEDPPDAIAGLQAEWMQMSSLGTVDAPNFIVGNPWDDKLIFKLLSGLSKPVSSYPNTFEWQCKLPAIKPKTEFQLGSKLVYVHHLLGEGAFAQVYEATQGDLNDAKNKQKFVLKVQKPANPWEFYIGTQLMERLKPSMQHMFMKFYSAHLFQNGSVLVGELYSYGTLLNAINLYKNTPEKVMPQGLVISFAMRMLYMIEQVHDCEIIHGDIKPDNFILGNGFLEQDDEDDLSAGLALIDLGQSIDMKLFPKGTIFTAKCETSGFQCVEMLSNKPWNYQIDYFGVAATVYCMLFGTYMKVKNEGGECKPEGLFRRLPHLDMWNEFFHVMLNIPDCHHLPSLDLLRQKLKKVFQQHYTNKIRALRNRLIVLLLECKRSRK

SMILES	pIC50
COCCOc1cnccc1-c1[nH]c2c(c1Nc1cccc(F)c1)C(=O)NCC2 [Example 47, 3-[(3-fluorophenyl)amino]-2-[3-(2-methoxyethoxy)pyridin-4-yl]-1,5,6,7-tetrahydro-4H-pyrrolo[3,2-c]pyridin-4-one]	7.71
CN1CCc2[nH]c(-c3ccncc3OCC(F)F)c(Nc3ccccc3)c2C1=O [Example 29, 2-[3-(2,2-difluoroethoxy)pyridin-4-yl]-5-methyl-3-(phenylamino)-1,5,6,7-tetrahydro-4H-pyrrolo[3,2-c]pyridin-4-one]	7.15
CCNC(=O)Nc1cc(-c2[nH]c3c(c2Nc2ccccc2)C(=O)NCC3)ccn1 [Example 19, 1-ethyl-3-{4-[4-oxo-3-(phenylamino)-4,5,6,7-tetrahydro-1H-pyrrolo[3,2-c]pyridin-2-yl]pyridin-2-yl}urea]	7.71
Cc1cc(-c2[nH]c3c(c2Nc2ccccc2)C(=O)NCC3)ccn1 [Example 12, 2-(2-methylpyridin-4-yl)-3-(phenylamino)-1,5,6,7-tetrahydro-4H-pyrrolo[3,2-c]pyridin-4-one]	7.81
CC1(C)Cc2[nH]c(-c3ccncc3)c(Nc3ccccc3)c2C(=O)N1 [Example 1, 6,6-dimethyl-3-(phenylamino)-2-(pyridin-4-yl)-1,5,6,7-tetrahydro-4H-pyrrolo[3,2-c]pyridin-4-one]	7.94
CCn1c2c(c(Nc3ccccc3)c1-c1ccnc(C)c1)C(=O)NCC2 [Example 13, 1-ethyl-2-(2-methylpyridin-4-yl)-3-(phenylamino)-1,5,6,7-tetrahydro-4H-pyrrolo[3,2-c]pyridin-4-one]	6.01
CN1CCc2[nH]c(-c3ccnc(NC(=O)[C@@H]4C[C@@H]4F)c3)c(Nc3ccccc3)c2C1=O [Example 40, (1S,2S)-2-fluoro-N-{4-[5-methyl-4-oxo-3-(phenylamino)-4,5,6,7-tetrahydro-1H-pyrrolo[3,2-c]pyridin-2-yl]pyridin-2-yl}cyclopropanecarboxamide]	7.55
CN1CCc2[nH]c(-c3ccncc3OCC(F)(F)F)c(Nc3ccccc3)c2C1=O [Example 30, 5-methyl-3-(phenylamino)-2-[3-(2,2,2-trifluoroethoxy)pyridin-4-yl]-1,5,6,7-tetrahydro-4H-pyrrolo[3,2-c]pyridin-4-one]	7.07
CCn1c2c(c(Nc3ccccc3)c1-c1ccncc1)C(=O)NCC2 [Example 5, 1-ethyl-3-(phenylamino)-2-(pyridin-4-yl)-1,5,6,7-tetrahydro-4H-pyrrolo[3,2-c]pyridin-4-one]	7.45
CN1CCc2[nH]c(-c3ccnc(NC(=O)C4CC4)c3)c(Nc3ccccc3)c2C1=O [Example 24]	7.82
COCCOc1cnccc1-c1[nH]c2c(c1Nc1ccccc1)C(=O)N(C)CC2 [Example 31, 2-[3-(2-methoxyethoxy)pyridin-4-yl]-5-methyl-3-(phenylamino)-1,5,6,7-tetrahydro-4H-pyrrolo[3,2-c]pyridin-4-one]	8.00
CN1CCc2[nH]c(-c3ccncc3F)c(Nc3ccccc3)c2C1=O [Example 17, 2-(3-fluoropyridin-4-yl)-5-methyl-3-(phenylamino)-1,5,6,7-tetrahydro-4H-pyrrolo[3,2-c]pyridin-4-one]	8.06

Further lines, results first:

pIC50	SMILES
7.55	COCCOc1cnccc1-c1[nH]c2c(c1Nc1ccc(F)c(F)c1)C(=O)NCC2 [Example 45, 3-[(3,4-difluorophenyl)amino]-2-[3-(2-methoxyethoxy)pyridin-4-yl]-1,5,6,7-tetrahydro-4H-pyrrolo[3,2-c]pyridin-4-one]
6.61	Cc1cnccc1-c1[nH]c2c(c1Nc1ccccc1)C(=O)NCC2 [Example 3, 2-(3-methylpyridin-4-yl)-3-(phenylamino)-1,5,6,7-tetrahydro-4H-pyrrolo[3,2-c]pyridin-4-one]
7.74	CC(=O)Nc1cc(-c2[nH]c3c(c2Nc2ccccc2)C(=O)NCC3)ccn1 [Example 14]
7.19	CCn1c2c(c(Nc3ccc(F)cc3)c1-c1ccncc1)C(=O)NCC2 [Example 11, 1-ethyl-3-[(4-fluorophenyl)amino]-2-(pyridin-4-yl)-1,5,6,7-tetrahydro-4H-pyrrolo[3,2-c]pyridin-4-one]
7.96	CC(C)(C)OC(=O)N1CCc2[nH]c(-c3ccncc3)c(Nc3ccccc3)c2C1=O [Example 6, tert-butyl 4-oxo-3-(phenylamino)-2-(pyridin-4-yl)-1,4,6,7-tetrahydro-5H-pyrrolo[3,2-c]pyridine-5-carboxylate]
7.22	O=C1NCCc2[nH]c(-c3ccncc3OCC3CC3)c(Nc3ccc(F)c(F)c3)c21 [Example 37, 2-[3-(cyclopropylmethoxy)pyridin-4-yl]-3-[(3,4-difluorophenyl)amino]-1,5,6,7-tetrahydro-4H-pyrrolo[3,2-c]pyridin-4-one]
7.94	O=C1NCCc2[nH]c(-c3ccncc3F)c(Nc3ccccc3)c21 [Example 18, 2-(3-fluoropyridin-4-yl)-3-(phenylamino)-1,5,6,7-tetrahydro-4H-pyrrolo[3,2-c]pyridin-4-one]
